From PubChem BioAssay AID2060612 (Molecular Pharmacology Branch, DTP, NCI, 2025)
Where “and” joins values, the source holds several entries; their conditions need not be identical. Equal entries are not always repeated.

System: 565232-114-T-J1-PDC complex spheroid viability
Assay: Anticancer human tumor 565232-114-T-J1-PDC patient-derived bladder carcinoma cell line growth inhibition [CLK]
Settings: for viability, T/C: stronger effect = lower value; active means viability on the fitted dose curve at most 10% of control; inactive means the rest
Excerpt: A high-throughput screen of multi-cell type tumor spheroids was designed to identify active combinations of […] and targeted small molecules. Complex spheroids include a stromal component modeled by human endothelial cells (HUVEC) and fibroblasts modeled by human mesenchymal stem cells (MSCs). The concentration ranges selected for each drug and investigational agent were based upon clinically achievable concentrations if the clinical Cmax of the agent was known.
Compounds. The drugs and investigational agents: cirtuvivint (SM08502; NSC835563), CC-671 (NSC850746), vemurafenib (NSC761431), tapotoclax (NSC804041), sotorasib (NSC818433), adagrasib (NSC831453), MRTX-1133 (NSC836407), BAY2416964 (NSC825713), copanlisib (NSC816437), inavolisib (NSC800729), abemaciclib (NSC768073), osimertinib (NSC779217), entinostat (NSC756642), eltanexor (KPT-8602, NSC794443), venetoclax (NSC766270), ceralasertib (NSC777638), bortezomib (NSC756655), olaparib (NSC753686), talazoparib (NSC767125), alisertib (NSC759677), peposertib (NSC802822), gemcitabine (NSC613327), 5-fluorouracil (NSC19893), SN-38 (NSC673596), oxaliplatin (NSC266046), paclitaxel (NSC125973), and doxorubicin (NSC123127), were obtained from the National Cancer Institute (NCI) Developmental Therapeutics Program Chemical Repository. The FDA-approved anticancer drug set is available from the Developmental Therapeutics Program at https://dtp.cancer.gov/organization/dscb/obtaining/available plates.htm. […] The stock solutions were prepared in dimethyl sulfoxide (DMSO, Sigma-Aldrich, St. Louis, MO, cat. D2650), except for the platinum complexes which were prepared in saline (Quality Biological, Gaithersburg, MD, cat. 114-055-101), at 800-fold the tested concentration and stored at -70 degrees C prior to their use. All drugs and investigational agents were tested over a range starting from a high concentration at or near the clinical Cmax and decreasing in half-log increments. If the clinical Cmax for an agent had not been determined, the highest concentration tested was 10 microM.
Cell Culture. All cells were maintained in an incubator at 37 degrees C and 5% CO2 with 95% humidity. The PDC lines were cultured according to standard operating procedures established by the NCI PDMR. Briefly, all PDCs were thawed and cultured in Matrigel-coated flasks prepared with a working solution of 1X Ham's F-12 nutrient mix, without supplementation (Invitrogen, Waltham, MA, cat. 11765054), 100 U/mL penicillin-streptomycin (Invitrogen, cat. 15140122), and 2.5% Matrigel (Corning Inc., Corning, NY, cat. 354248) for the first three passages. The 947758-054-R-J2-PDC line was cultured in 6B/Colon 1A media, which includes advanced DMEM/F-12 (Thermo Fisher Scientific, cat. 12634028), 10 mM HEPES (Thermo Fisher Scientific, cat. 15630080), 1X GlutaMAX supplement (Thermo Fisher Scientific, cat. 35050061), 0.1 mg/mL primocin (InvivoGen, cat. ant-pm-2), 10% defined fetal bovine serum, heat inactivated (HyClone Laboratories Inc., cat. SH30070.03HI), 1.25 mM N-Acetyl-L-cysteine (Sigma-Aldrich, cat. A9165), 10 mM nicotinamide (Sigma-Aldrich, cat. N0636), 1X B-27 supplement (Thermo Fisher Scientific, cat. 17504044), 1X N-2 supplement (Thermo Fisher Scientific, cat. 17502048), and 10 microM Y-27632 dihydrochloride (Tocris Bioscience, cat. 1254). The 876862-298-R-J1-PDC was cultured in 6E media, which includes all 6B/Colon 1A media components plus 50% L-WRN conditioned media (ATCC, cat. CRL-3276), 50 ng/mL recombinant human EGF recombinant protein (hEGF; Thermo Fisher Scientific, cat. PHG0311), 10 ng/mL recombinant human fibroblast growth factor 10 (hGFG-10; PeproTech, cat. 100-26), 1 ng/mL recombinant human fibroblast growth factor 2 (hFGF-2; PeproTech, cat. 100-18B), and 1 µM prostaglandin E2 (PGE2; Tocris, cat. 2296). The 227483-062-R1-J1-PDC line was cultured in Panc media, containing all 6E components except hFGF-2, with the addition of 500 nM SB-431542 (Selleckchem, cat. S1067) and 10 nM gastrin (Tocris, cat. 3006). […]
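Further: spheroids exposed to compounds for 7 days before readout.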
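Wherever viability, T/C is given: 100% = DMSO vehicle wells with luminescence normalized to vehicle control.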

COc1cccc2c1C(=O)c1c(O)c3c(c(O)c1C2=O)CC(O)(C(=O)CO)CC3OC1CC(N)C(O)C(C)O1 (centres undefined)
16.1% and 0.8%: viability, T/C (compound 1 µM)
0.533 µM and 0.0925 µM: IC50 (curve of compound)
inactive: viability, T/C (compound 0.0316 µM) 93.4% and 109% | viability, T/C (compound 0.1 µM) 85.3% and 45.3% | viability, T/C (compound 0.316 µM) 78.4% and 15.7%
active: viability, T/C (compound 3.16 µM) 0.18% and 0.27% | viability, T/C (compound 10 µM) 0.14% and 0.26%

Cn1ncnc1[C@H]1c2n[nH]c(=O)c3cc(F)cc(c23)N[C@@H]1c1ccc(F)cc1 + CN1CCN(c2cc(C(=O)Nc3cc4cc(-c5cnn(C)c5)ccc4cn3)ccn2)CC1
inactive: viability, T/C (second compound 0.0316 µM, first compound 0.000316 µM) 100% | viability, T/C (second compound 0.0316 µM, first compound 0.001 µM) 76.1% | viability, T/C (second compound 0.0316 µM, first compound 0.00316 µM) 91.5% | viability, T/C (second compound 0.0316 µM, first compound 0.01 µM) 82.1% | viability, T/C (second compound 0.0316 µM, first compound 0.0316 µM) 135% | viability, T/C (second compound 0.0316 µM, first compound 0.1 µM) 102% | viability, T/C (second compound 0.1 µM, first compound 0.000316 µM) 86.2% | viability, T/C (second compound 0.1 µM, first compound 0.001 µM) 84.3% | viability, T/C (second compound 0.1 µM, first compound 0.00316 µM) 111% | viability, T/C (second compound 0.1 µM, first compound 0.01 µM) 112% | viability, T/C (second compound 0.1 µM, first compound 0.0316 µM) 110% | viability, T/C (second compound 0.1 µM, first compound 0.1 µM) 90.9% | viability, T/C (second compound 0.316 µM, first compound 0.000316 µM) 16.9% | viability, T/C (second compound 0.316 µM, first compound 0.001 µM) 24% | viability, T/C (second compound 0.316 µM, first compound 0.00316 µM) 20.2% | viability, T/C (second compound 0.316 µM, first compound 0.01 µM) 21.3% | viability, T/C (second compound 0.316 µM, first compound 0.0316 µM) 21.5% | viability, T/C (second compound 0.316 µM, first compound 0.1 µM) 19.5%
> 0.1 µM: IC50 (curve of first compound, second compound 0.0316 µM) | IC50 (curve of first compound, second compound 0.1 µM)
< 0.000316 µM: IC50 (curve of first compound, second compound 0.316 µM) | IC50 (curve of first compound, second compound 1 µM) | IC50 (curve of first compound, second compound 3.16 µM) | IC50 (curve of first compound, second compound 10 µM)
active: viability, T/C (second compound 1 µM, first compound 0.000316 µM) 0.16% | viability, T/C (second compound 1 µM, first compound 0.001 µM) 0.26% | viability, T/C (second compound 1 µM, first compound 0.00316 µM) 1.61% | viability, T/C (second compound 1 µM, first compound 0.01 µM) 0.19% | viability, T/C (second compound 1 µM, first compound 0.0316 µM) 1.31% | viability, T/C (second compound 1 µM, first compound 0.1 µM) 0.83% | viability, T/C (second compound 3.16 µM, first compound 0.000316 µM) 0.42% | viability, T/C (second compound 3.16 µM, first compound 0.001 µM) 0.22% | viability, T/C (second compound 3.16 µM, first compound 0.00316 µM) 2.43% | viability, T/C (second compound 3.16 µM, first compound 0.01 µM) 0.14% | viability, T/C (second compound 3.16 µM, first compound 0.0316 µM) 1.43% | viability, T/C (second compound 3.16 µM, first compound 0.1 µM) 2.75% | viability, T/C (second compound 10 µM, first compound 0.000316 µM) 0.15% | viability, T/C (second compound 10 µM, first compound 0.001 µM) 1.85% | viability, T/C (second compound 10 µM, first compound 0.00316 µM) 1.09% | viability, T/C (second compound 10 µM, first compound 0.01 µM) 1.69% | viability, T/C (second compound 10 µM, first compound 0.0316 µM) 0.53% | viability, T/C (second compound 10 µM, first compound 0.1 µM) 1.35%
